Results: patent US20210253598A1, “ARYL ANNULATED MACROCYCLIC INDOLE DERIVATIVES” (priority 2017, published 2021)

Columns and labels:
SUDHL5 [1] = test: Induction of cytotoxicity in SUDHL5 cells, CellTiter-Glo (Assay 6); assay type: cell-based; conditions: Homo sapiens, SU-DHL-5, 5 h, SUDHL5, 5 hours incubation, median, read-out: Cytotox SUDHL5 [M] (median)
In short: (§1)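 Run alongside apoptosis assays, this cytotoxicity measure used a 5-hour compound incubation at 37° C in humidified conditions, following overnight attachment. Cell viability was quantified by CellTiter-Glo luminescence.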

A2780 = test: Anti-proliferative effect in A2780 cells, CellTiter-Glo (Assay 7); assay type: cell-based; conditions: Homo sapiens, A2780, 72 h, A2780, 72 hours incubation, CellTiter-Glo; several values per example; read-out: Antiproli A2780
Protocol: (§2) Assessment of the Anti-Proliferative Effect of Compounds in Different Cell Lines
(§3) The impact of compounds on the proliferation of different cell lines was assessed using the CellTiter-Glo® Luminescent Cell Viability reagent from Promega (G7573).
(§4) In parallel, cells were plated in a reference (day 0) plate for time zero determination. Cells were incubated in a humidified incubator at 37° C. overnight.
(§5) Rim wells were excluded. The cells were incubated for 72 hours in a humidified incubator at 37° C. The day 0 plate was measured by adding 30 μL/well of CTG solution (CellTiter-Glo® Luminescent Cell Viability reagent, Promega G7573) to time zero wells in the reference plate followed by a 10 minutes incubation and luminescence reading at 0.1 ms. using the PHERAstar FS microplate reader (BMG Labtech).
(§6) After 72 hours incubation, the treated plates were measured in the same way as the day 0 plate mentioned above. The Bella DRC Master Sheet was used to calculate IC50s, with CI=day 0 values and C0=DMSO control values.

SUDHL5 [2] = test: Anti-proliferative effect in SUDHL5 cells, CellTiter-Glo (Assay 7); assay type: cell-based; conditions: Homo sapiens, SU-DHL-5, 72 h, SUDHL5, 72 hours incubation, CellTiter-Glo; median; read-out: Antiproli SUDHL5 [M] (median)
Protocol: as §2, §3, §4, §5, §6

MV-4-11 = test: Anti-proliferative effect in MV-4-11 cells, CellTiter-Glo (Assay 7); assay type: cell-based; conditions: Homo sapiens, MV4-11, 72 h, MV-4-11, 72 hours incubation, CellTiter-Glo; several values per example; read-out: Antiproli MV-4-11
Protocol: as §2, §3, §4, §5, §6

SUDHL5 [3] = test: Induction of caspase-3/7 activity in SUDHL5 cells (Assay 4); assay type: cell-based; conditions: Homo sapiens, SU-DHL-5, 3 h, SUDHL5, 3 hours treatment, Caspase-Glo 3/7; median; read-out: Caspase SUDHL5 [M] (median)
In short: (§7)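 Luminescent Caspase-Glo 3/7 read-out in SUDHL5 and SUDHL10 cells after 3 h compound exposure at 37 °C, followed by 1 h reagent incubation.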

MCL-1 = MCL-1 (Homo sapiens, UniProt Q07820, K194A/K197A/R201A); test: Protein-protein interaction assay MCL-1/Noxa BH3 peptide, TR-FRET (MCL-1 assay, Assay 1); assay type: binding; conditions: MCL-1 Assay [M] (median), MBP-MCL-1 / Noxa BH3 peptide
In short: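 TR-FRET competition between compounds and a biotin-PEG Noxa BH3 tracer for 1 nM MBP-MCL-1 (residues 173-321). Incubation was 1 h at 22 °C in the dark, then overnight at 4 °C, in 50 mM Tris pH 7 buffer with KF and DTT, after a 10-min compound pre-equilibration. Normalized ratios were fitted with a 4-parameter Hill equation to give IC50.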

SUDHL10 [4] = test: Induction of cytotoxicity in SUDHL10 cells, CellTiter-Glo (Assay 6); assay type: cell-based; conditions: Homo sapiens, SU-DHL10, 5 h, SUDHL10, 5 hours incubation, median, read-out: Cytotox SUDHL10 [M] (median)
In short: as §1

SUDHL10 [5] = test: Induction of caspase-3/7 activity in SUDHL10 cells (Assay 4); assay type: cell-based; conditions: Homo sapiens, SU-DHL10, 3 h, SUDHL10, 3 hours treatment, Caspase-Glo 3/7; median; read-out: Caspase SUDHL10 [M] (median)
In short: as §7

Sequence of MCL-1 (Q07820 173-321 K194A/K197A/R201A, looked up): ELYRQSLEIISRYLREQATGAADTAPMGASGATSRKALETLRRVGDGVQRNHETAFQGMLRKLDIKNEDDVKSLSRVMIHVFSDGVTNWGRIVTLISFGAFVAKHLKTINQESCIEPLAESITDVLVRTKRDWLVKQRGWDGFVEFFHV

| SMILES | IC50 (SUDHL5 [1]) [M] | IC50 (A2780) [µM] | IC50 (SUDHL5 [2]) [M] | IC50 (MV-4-11) [µM] | EC50 (SUDHL5 [3]) [M] | IC50 (MCL-1) [M] | IC50 (SUDHL10 [4]) [M] | EC50 (SUDHL10 [5]) [M] |
| --- | --- | --- | --- | --- | --- | --- | --- | --- |
| Cc1c2c(nn1C)CN(C(=O)NCC1CCOCC1)Cc1ccccc1Cn1c(C(=O)O)c(CCCOc3cccc4ccccc34)c3cccc-2c31 (racemic) [Example 27, (rac)-4,5-Dimethyl-17-[3-(naphthalen-1-yloxy)propyl]-8-[(tetrahydro-2H-pyran-4-ylmethyl)-carbamoyl]-7,8,9,14-tetrahydro-5H-indolo[1,7-bc]pyrazolo[4,3-e][2,8]benzodiazacycloundecine-16-carboxylic Acid] | > 3.3e-05 | 31.4 | 2.7e-05 | 24.8 | > 3.3e-05 | 3.1e-08 | > 3.3e-05 | > 3.3e-05 |
| Cc1c2c(nn1C)CN(S(=O)(=O)CCN1CCOCC1)Cc1ccccc1Cn1c(C(=O)O)c(CCCOc3cccc4ccccc34)c3cccc-2c31 (racemic) [Example 30, (rac)-4,5-Dimethyl-8-{[2-(morpholin-4-yl)ethyl]sulfonyl}-17-[3-(naphthalen-1-yloxy)propyl]-7,8,9,14-tetrahydro-5H-indolo[1,7-bc]pyrazolo[4,3-e][2,8]benzodiazacycloundecine-16-carboxylic Acid] | 8.6e-06 | 17.1 | 4.6e-06 | 7.85 | 8.5e-06 | 3.7e-08 | 2.9e-05 | > 3.3e-05 |
| Cc1c2c(nn1C)COCc1ccccc1Cn1c(C(=O)O)c(CCCOc3cccc4ccccc34)c3ccc(Cl)c-2c31 (racemic) [Example 36, (rac)-3-Chloro-4,5-dimethyl-17-[3-(naphthalen-1-yloxy)propyl]-5,7,9,14-tetrahydroindolo[7,1-fg]pyrazolo[3,4-d][2,8]benzoxazacycloundecine-16-carboxylic Acid] | 3.8e-06 | 23.1 | 3.6e-06 | 1.38 | 2.4e-06 | 3.2e-09 | 4.9e-06 | 5.5e-06 |
| Cc1c2c(nn1C)COCc1cccnc1Cn1c(C(=O)O)c(CCCOc3cccc4ccccc34)c3ccc(Cl)c-2c31 (racemic) [Example 39, (rac)-3-Chloro-4,5-dimethyl-17-[3-(naphthalen-1-yloxy)propyl]-5,7,9,14-tetrahydropyrazolo-[4′,3′:9,10]pyrido[3′,2′:3,4][1,6]oxazacycloundecino[8,7,6-hi]indole-16-carboxylic Acid] | 3.3e-06 | > 33 | 2.4e-06 | 15.6 | 3.7e-06 | 1.6e-09 | 6.7e-06 | 5.7e-06 |
| Cc1nn(C)c2c1-c1c(F)ccc3c(CCCOc4ccc(F)c5ccccc45)c(C(=O)O)n(c13)Cc1ccccc1COC2 (racemic) [Example 82, (rac)-15-Fluoro-1-(3-((4-fluoronaphthalen-1-yl)oxy)propyl)-12,14-dimethyl-4,9,11,12-tetrahydrobenzo[3,4]pyrazolo[4′,3′:9,10][1]oxa[6]azacycloundecino[8,7,6-hi]indole-2-carboxylic Acid] | 2.4e-05 | 28.5 | 1e-05 | 14.5 | 2.2e-05 | 1.2e-08 | > 3.3e-05 | > 3.3e-05 |
| CCc1c2c(nn1C)COCc1ccccc1Cn1c(C(=O)O)c(CCCOC3CCCc4ccccc43)c3ccc(F)c-2c31 (racemic) [Example 92, (rac)-14-Ethyl-15-fluoro-13-methyl-1-(3-((1,2,3,4-tetrahydronaphthalen-1-yl)oxy)propyl)-4,9,11,13-tetrahydrobenzo[3,4]pyrazolo[4′,3′:9,10][1]oxa[6]azacycloundecino[8,7,6-hi]indole-2-carboxylic Acid] | 8.1e-06 | > 33 | > 3.3e-05 | 6.15 | 1.5e-05 | 1.8e-08 | > 3.3e-05 | > 3.3e-05 |
